Measured values reported in US12083101B2, “Biaryl derivatives as YAP/TAZ-TEAD protein-protein interaction inhibitors” (Novartis AG, priority 2020, dated 2024).
Read-outs that look alike come from different tables or passages of the source.

Assays:
[1] = molecular target: Avi-humanTEAD4 217-434 / Cy5 labeled humanYAP 60-100 (Homo sapiens (Human), UniProt Q15561); assay: TR-FRET YAP-TEAD4 in-vitro biochemical assay; format: binding; conditions: 1 nM Avi-humanTEAD4 217-434, 20 nM Cy5-humanYAP 60-100, 1 h room temperature
[2] = tested on: MKN-45/Ubc-luc cells; assay: Reporter gene specificity control (Ubc-luciferase), MKN-45
[3] = tested on: MKN-45/Ubc-luc cells; assay: Proliferation assay (resazurin), MKN-45; format: cell-based; conditions: 72 hours incubation
Experimental: As a specificity control, MKN-45 cells were stably transduced with a Ubc-Luc reporter construct, in which constitutive expression of firefly luciferase is driven by the promoter of the ubiquitin C housekeeping gene.
(§1) Stock solutions of compounds were prepared at a concentration of 10 mM in DMSO and stored at 4° C. Where necessary to afford a full dose-response curve, the stock solutions were pre-diluted in DMSO to 1'000-fold the desired reduced start concentration. On the day after cell seeding, eleven 2-fold serial dilutions of each compound were dispensed directly into the cell assay plates using a HP 300D non-contact Digital Dispenser (TECAN, Mannedorf, Switzerland). The final concentration of DMSO was normalized to 0.1% in all wells.
(§2) The functional effect of compounds on cell proliferation was assessed using NCI-H2052 Tet-On shYAP_2371 pLenti6 MCAT_Luc and MKN-45/Ubc-luc cells by quantifying the reducing capacity of live cells using the redox indicator dye resazurin. […] For data analysis, the assay background value determined in wells containing medium, but no cells, was subtracted from all data points. […] The effect of a particular test compound concentration on cell proliferation/viability was expressed as percentage of day 0-corrected fluorescence reading obtained for cells treated with vehicle only (DMSO, final concentration 0.1%), which was set as 100%, whereas the fluorescence reading for wells containing medium only, but no cells, was set as −100%. Compound concentrations leading to half-maximal growth inhibition (GI50) were determined using standard four parameter curve fitting.

[4] = tested on: NCI-H2052 Tet-On shYAP_2371 pLenti6 MCAT_Luc cells (YAP-dependent transcription); assay: YAP reporter gene activity assay (MCAT-luciferase), NCI-H2052; format: cell-based; conditions: 24 hours incubation, BrightGlo luminescence
Experimental: (§3) This cell line was also transduced with a Tet-pLKO-puro-based construct mediating tetracycline-inducible expression of a short-hairpin directed against the 3′UTR of the YAP1 mRNA (5′-[…]-3′).
as §1
The ability of compounds to inhibit YAP-dependent transcription was assessed in NCI-H2052 Tet-On shYAP_2371 pLenti6 MCAT_Luc cells, while specificity (lack of unspecific inhibition of luciferase expression of activity) was assessed in MKN-45/Ubc-luc cells. […] Following incubation for 24 hours at 37° C., compound-mediated modulation of reporter-gene activity was quantified 5 min after addition of 20 μl BrightGlo (Promega, Cat #E2620), by measuring luminescence intensity on a multi-mode plate-reader (TECAN, Männedorf, Switzerland, Integration time 100 ms). For data analysis, the assay background value determined in wells containing medium, but no cells, was subtracted from all data points. Dose-dependent compound effects were expressed as % of vehicle-treated control (luminescence signal produced by cells receiving DMSO only) and IC50s calculated using a four-parametric fit model.

[5] = tested on: NCI-H2052 Tet-On shYAP_2371 pLenti6 MCAT_Luc cells; assay: Proliferation assay (resazurin), NCI-H2052; format: cell-based; conditions: 72 hours incubation
Experimental: as §3, §1, §2

[6] = Homo sapiens, MKN-45, 24 h, read-out: Reporter gene assay MKN-45 IC50 [μM], MKN-45/Ubc-luc cells (YAP deleted, specificity control), 24 hours incubation

Avi-humanTEAD4 217-434 / Cy5 labeled humanYAP 60-100, sequence (Q15561 217-434): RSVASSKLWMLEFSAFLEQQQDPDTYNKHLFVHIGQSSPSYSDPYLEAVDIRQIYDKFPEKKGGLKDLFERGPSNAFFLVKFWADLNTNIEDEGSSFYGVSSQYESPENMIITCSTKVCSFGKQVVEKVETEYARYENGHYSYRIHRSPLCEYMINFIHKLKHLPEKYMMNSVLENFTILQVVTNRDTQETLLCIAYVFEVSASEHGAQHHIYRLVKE

Row | Structure (SMILES) | IC50 [1] [nM] | IC50 [2, 6] [µM] | GI50 ([3]; Homo sapiens) [nM] | IC50 ([4]; Homo sapiens, NCI-H2052, 24 h) [nM] | GI50 ([5]; Homo sapiens, NCI-H2052, 72 h) [nM] | IC50 ([2]; read-out: Reporter gene assay MKN-45 IC50, MKN-45/Ubc-luc cells (YAP deleted, specificity control), 24 hours incubation) [µM] | GI50 [3] [nM] | IC50 [4] [nM] | GI50 [5] [nM]
1 | CNC(=O)c1ccc(OC[C@H](C)O)c(F)c1-c1c(Cl)c(F)cc2c1C[C@](c1ccccc1)([C@@H]1CCCN1)O2 (atropisomer, axis not shown) [Example 154, 2-((2S,4S)-5-Chloro-6-fluoro-2-phenyl-2-((S)-pyrrolidin-2-yl)-2,3-dihydrobenzofuran-4-yl)-3-fluoro-4-((S)-2-hydroxypropoxy)-N-methylbenzamide] | 8 | > 10 | > 10000 | 77 | 59 | – | – | – | –
2 | CNC[C@@]1(c2ccccc2)Cc2c(cc(F)c(Cl)c2-c2c(C(=O)NC)ccc(OC[C@H](C)O)c2F)O1 (atropisomer, axis not shown) [Example 52, 2-((2S,4S)-5-chloro-6-fluoro-2-((methylamino)methyl)-2-phenyl-2,3-dihydrobenzofuran-4-yl)-3-fluoro-4-((S)-2-hydroxypropoxy)-N-methylbenzamide] | 11 | > 10 | > 10000 | 109 | 174 | – | – | – | –
3 | CNC(=O)c1ccc(OCCO)c(F)c1-c1c(Cl)c(F)cc2c1C[C@@](CN)(c1ccccc1)O2 (atropisomer, axis not shown) [Example 44, 2-((2S,4S)-2-(Aminomethyl)-5-chloro-6-fluoro-2-phenyl-2,3-dihydrobenzofuran-4-yl)-3-fluoro-4-(2-hydroxyethoxy)-N-methylbenzamide] | – | > 10 | > 10000 | 69 | 109 | – | – | – | –
4 | CO[C@H]1c2c(cc(F)c(Cl)c2-c2c(C(N)=O)ccc(OCCO)c2F)O[C@]1(CN)c1ccccc1 (atropisomer, axis not shown) [Example 101, 2-((2S,3S,4S)-2-(Aminomethyl)-5-chloro-6-fluoro-3-methoxy-2-phenyl-2,3-dihydrobenzofuran-4-yl)-3-fluoro-4-(2-hydroxyethoxy)benzamide] | – | > 10 | > 10000 | 67 | 106 | – | – | – | –
5 | Fc1cc2c(c(-c3ccccc3)c1Cl)C[C@](c1ccccc1)([C@@H]1C[C@@H](F)CN1)O2 [Example 160, (2S,4R)-2-((S)-5-chloro-6-fluoro-2,4-diphenyl-2,3-dihydrobenzofuran-2-yl)-4-fluoropyrrolidine] | 4400 | – | – | – | – | – | – | – | –
6 | NC[C@@]1(c2ccccc2)Cc2c(ccc(Cl)c2-c2c(F)cccc2C(N)=O)O1 (stereo in doubt) [Example 4a, 2-((2S*,4S*)-2-(Aminomethyl)-5-chloro-2-phenyl-2,3-dihydrobenzofuran-4-yl)-3-fluorobenzamide] | 34 | – | – | – | – | – | – | – | –
7 | C[C@@H](CO)NC[C@@]1(c2ccccc2)Cc2c(cc(F)c(Cl)c2-c2c(C(N)=O)ccc(OC(F)F)c2F)O1 (atropisomer, axis not shown) [Example 75, 2-((2S,4S)-5-chloro-6-fluoro-2-((((S)-1-hydroxypropan-2-yl)amino)methyl)-2-phenyl-2,3-dihydrobenzofuran-4-yl)-4-(difluoromethoxy)-3-fluorobenzamide] | 38 | – | – | – | – | – | – | – | –
8 | CCc1ccc(C(N)=O)c(-c2c(Cl)c(F)cc3c2C[C@@](CN[C@H]2CC[C@@](C)(O)CC2)(c2ccccc2)O3)c1F (atropisomer, axis not shown) [Example 68b, 2-((2S,4S)-5-chloro-6-fluoro-2-((((cis)-4-hydroxy-4-methylcyclohexyl)amino)methyl)-2-phenyl-2,3-dihydrobenzofuran-4-yl)-4-ethyl-3-fluorobenzamide] | 12 | – | – | – | – | – | – | – | –
9 | NC(=O)c1ccc(OC(F)F)c(F)c1-c1c(Cl)c(F)cc2c1C[C@@](CN[C@H]1CC[C@H](n3cnnn3)CC1)(c1ccccc1)O2 (atropisomer, axis not shown) [Example 79, 2-((2S,4S)-2-((((trans)-4-(1H-tetrazol-1-yl)cyclohexyl)amino)methyl)-5-chloro-6-fluoro-2-phenyl-2,3-dihydrobenzofuran-4-yl)-4-(difluoromethoxy)-3-fluorobenzamide] | 11 | – | – | – | – | – | – | – | –

The remaining compounds from weak to strong by IC50 [1], led by results:

Row | IC50 [1] [nM] | IC50 [2, 6] [µM] | GI50 ([3]; Homo sapiens) [nM] | IC50 ([4]; Homo sapiens, NCI-H2052, 24 h) [nM] | GI50 ([5]; Homo sapiens, NCI-H2052, 72 h) [nM] | IC50 ([2]; read-out: Reporter gene assay MKN-45 IC50, MKN-45/Ubc-luc cells (YAP deleted, specificity control), 24 hours incubation) [µM] | GI50 [3] [nM] | IC50 [4] [nM] | GI50 [5] [nM] | Structure (SMILES)
10 | 7 | > 10 | 7830 | 153 | 246 | – | – | – | – | COCCOc1ccc(C(N)=O)c(-c2c(Cl)c(F)cc3c2[C@H](C)[C@](c2ccccc2)(C(C)N)O3)c1F (stereo partly drawn) [Example 169, 2-((2S,3S,4S)-2-(1-Aminoethyl)-5-chloro-6-fluoro-3-methyl-2-phenyl-2,3-dihydrobenzofuran-4-yl)-3-fluoro-4-(2-methoxyethoxy)benzamide]
11 | 6 | – | – | – | – | – | – | – | – | Cn1nccc1NC(=O)c1ccc(F)c(F)c1-c1c(Cl)ccc2c1C[C@@](CN)(c1ccccc1)O2 (atropisomer, axis not shown) [Example 24, 2-((2S,4S)-2-(aminomethyl)-5-chloro-2-phenyl-2,3-dihydrobenzofuran-4-yl)-3,4-difluoro-N-(1-methyl-1H-pyrazol-5-yl)benzamide]
12 | 5 | > 10 | > 10000 | 106 | 145 | – | – | – | – | COc1ccc(C(=O)Nc2cccnc2)c(-c2c(Cl)ccc3c2C[C@@](CN)(c2ccccc2)O3)c1F (atropisomer, axis not shown) [Example 25, 2-((2S,4S)-2-(aminomethyl)-5-chloro-2-phenyl-2,3-dihydrobenzofuran-4-yl)-3-fluoro-4-methoxy-N-(pyridin-3-yl)benzamide]
13 | 4 | > 20 | > 20000 | 54 | 53 | – | – | – | – | C[C@H]1c2c(cc(F)c(Cl)c2-c2c(C(N)=O)ccc(OCC(C)(C)O)c2F)O[C@]1(CN[C@H]1CC[C@](C)(O)CC1)c1ccccc1 (atropisomer, axis not shown) [Example 148, 2-((2S,3S,4S)-5-Chloro-6-fluoro-2-((((trans)-4-hydroxy-4-methylcyclohexyl)amino)methyl)-3-methyl-2-phenyl-2,3-dihydrobenzofuran-4-yl)-3-fluoro-4-(2-hydroxy-2-methylpropoxy)benzamide]
14 | 4 | > 10 | > 10000 | 107 | 107 | – | – | – | – | COc1ccc(C(N)=O)c(-c2c(Cl)c(F)cc3c2[C@H](O)[C@](c2ccccc2)(C2CCCN2)O3)c1F (stereo partly drawn) [Example 164, 2-((2S,3S,4S)-5-chloro-6-fluoro-3-hydroxy-2-phenyl-2-(pyrrolidin-2-yl)-2,3-dihydrobenzofuran-4-yl)-3-fluoro-4-methoxybenzamide]
15 | 3 | – | – | – | – | > 10 | > 10000 | 83 | 101 | NC(=O)c1ccc(OC(F)F)c(F)c1-c1c(Cl)ccc2c1[C@H](O)[C@@](CN[C@H]1CC[C@@H](O)CC1)(c1ccccc1)O2 (relative stereo) [Example 94b, 2-((2S,3S,4S)-5-chloro-3-hydroxy-2-((((cis)-4-hydroxycyclohexyl)amino)methyl)-2-phenyl-2,3-dihydrobenzofuran-4-yl)-4-(difluoromethoxy)-3-fluorobenzamide]
16 | 3 | > 10 | > 10000 | 22 | 41 | – | – | – | – | NC(=O)c1ccc(OCCO)c(F)c1-c1c(Cl)c(F)cc2c1C[C@@](CN[C@H]1C[C@@H](CO)C1)(c1ccccc1)O2 (atropisomer, axis not shown) [Example 64b, 2-((2S,4S)-5-chloro-6-fluoro-2-((((cis)-3-(hydroxymethyl)cyclobutyl)amino)methyl)-2-phenyl-2,3-dihydrobenzofuran-4-yl)-3-fluoro-4-(2-hydroxyethoxy)benzamide]
17 | 3 | – | – | – | – | – | – | – | – | CNC[C@@]1(c2ccccc2)Cc2c(cc(F)c(Cl)c2-c2c(C(N)=O)ccc(OC)c2F)O1 (atropisomer, axis not shown) [Example 46, 2-((2S,4S)-5-Chloro-6-fluoro-2-((methylamino)methyl)-2-phenyl-2,3-dihydrobenzofuran-4-yl)-3-fluoro-4-methoxybenzamide]
